The text below walks through data of publication PMC8929364, “Metopimazine is primarily metabolized by a liver amidase in humans” (Pharmacology Research & Perspectives, 2021).

Several values for one entry are separate records, joined by “and”; a condition that tells them apart may be missing. Equal entries are not always repeated. Where only a bound is given, the exact number is not on record here.

Series [1] concerns microsomal FMOs. In words: Incubation of MPZ with HLM for FMO, with and without methimazole. The conditions noted are these: 1 mM methimazole, pH 8.4, NADPH, 60 min. Format: in vitro ADME, human. On the procedure:
MPZ, at 1.0 and 10.0 µM, was incubated with HLM or HKM to determine the contribution of microsomal FMOs on the metabolism of MPZ.
A reaction mixture containing KPi buffer (pH 8.4), HLM or HKM (0.5 mg/ml protein) and MPZ (1.0 and 10.0 µM) was pre‐incubated for 3–5 min at 37°C. The reaction was initiated by the addition of NADPH into the reaction mixture. The reaction was conducted for 0 and 60 min. A positive control (benzydamine, 100 µM) was incubated in duplicate for 0 and 20 min. Parallel incubation was conducted by adding 1 mM methimazole, a non‐specific FMO inhibitor, under identical conditions. Heat‐inactivated microsomes (50°C for at least 5 min) was incubated under identical conditions negative control. All other procedures were the same as described previously.

Series [2] relates to microsomal CYP enzymes. In words: HLM incubation of MPZ with CYP inhibitors. The settings on record: HLM 0.5 mg/ml, 60 min; for effect of inhibitor on MPZH formation from MPZ (peak area ratio, qualitative) / effect of inhibitor on MPZS formation from MPZ: 1 mM ABT; for effect of inhibitor on MPZH formation from MPZ (peak area ratio, qualitative): quinidine 1 µM; for effect of inhibitor on MPZS formation from MPZ: itraconazole 2.5 µM. On the procedure: Initially, two sets of incubations were conducted with HLM (0.5 mg/ml microsomal protein), 1 and 10 μM MPZ, 100 mM KPi buffer (pH 7.4) where one set was in the presence and the other set was in the absence of 1 mM ABT, a non‐specific CYP inhibitor for 60 min. This allowed the assessment of total CYP contribution for MPZ metabolism. Then, CYP‐specific chemical inhibitors were used to assess the contribution of individual major CYP‐isoforms where HLM were incubated with 1 or 10 μM MPZ in the presence and in the absence of each CYP specific inhibitor at 37°C for 60 min. […] Parallel incubation with seven CYP specific probe substrates (phenacetin for CYP1A2, bupropion for CYP2B6, paclitaxel for CYP2C8, diclofenac for CYP2C9, S‐mephenytoin for CYP2C19, dextromethorphan for CYP2D6 and midazolam for CYP3A4/5) were included in as positive controls. For negative control reaction, MPZ was incubated at 37°C in duplicate in a reaction mixture devoid of NADPH. All other procedures were the same as described previously.
LC separation conditions were developed for MPZ and its metabolites (MPZA and MPZS), 7‐hydroxycoumarin, each metabolite of CYP probe substrate, benzydamine N‐oxide, and phthalazine. The LC–MS/MS system consisted of a Shimadzu Nexera X2 LC‐30 UPLC system (Shimadzu Corporation), and an API 4000 triple quadrupole mass spectrometer (SCIEX) was used for analysis. All analytes were analyzed using electrospray ionization (ESI) in positive ion mode except for 7‐EC, which used negative ion mode. The LC–MS/MS system was controlled by Analyst software (version 1.6.1, SCIEX).
For each analytical method, a calibration curve was generated for the quantification of MPZ and its two metabolites (MPZA and MPZS). […] PAR was also used for all positive control compounds.

Series [3] has as its system human liver microsomal amidase. In words: Incubations with heat-treated HLM for microsomal hydrolase/amidase activity, with and without BNPP. Type of series: in vitro ADME. The conditions noted are these: 10 µM MPZ, HLM, 60 min. The procedure: Prior to the reaction for amidase activity, the reaction mixture containing KPi buffer (pH 7.4, 8.4, or 9.4) and HLM was pre‐incubated at 50°C for 5 min to inactivate CYP and FMO activities in HLM. The mixture was placed on ice to cool down. An aliquot was taken out which was considered as t = 0 min incubation. Then 10 µM MPZ was added into the remaining mixture and incubated at 37°C on an orbital shaker for 60 min. A parallel set of incubations was conducted with 10 µM MPZ in the presence at 2 and 16 µM, of BNPP (a known inhibitor of amidase). All reactions were in triplicate. The total percentage of organic solvent in the incubation mixture was ≤0.1%. The reactions were terminated by the addition of chilled acetonitrile: methanol, 90:10, (v/v). The samples were vortex‐mixed and stored at ≤−70°C and were subjected analyzed by LC–MS/MS.

Series [4] deals with T1, CYP3A4 (Homo sapiens, UniProt P08684).
T1 construct: purchased Corning Inc
T1 sequence (P08684 whole entry): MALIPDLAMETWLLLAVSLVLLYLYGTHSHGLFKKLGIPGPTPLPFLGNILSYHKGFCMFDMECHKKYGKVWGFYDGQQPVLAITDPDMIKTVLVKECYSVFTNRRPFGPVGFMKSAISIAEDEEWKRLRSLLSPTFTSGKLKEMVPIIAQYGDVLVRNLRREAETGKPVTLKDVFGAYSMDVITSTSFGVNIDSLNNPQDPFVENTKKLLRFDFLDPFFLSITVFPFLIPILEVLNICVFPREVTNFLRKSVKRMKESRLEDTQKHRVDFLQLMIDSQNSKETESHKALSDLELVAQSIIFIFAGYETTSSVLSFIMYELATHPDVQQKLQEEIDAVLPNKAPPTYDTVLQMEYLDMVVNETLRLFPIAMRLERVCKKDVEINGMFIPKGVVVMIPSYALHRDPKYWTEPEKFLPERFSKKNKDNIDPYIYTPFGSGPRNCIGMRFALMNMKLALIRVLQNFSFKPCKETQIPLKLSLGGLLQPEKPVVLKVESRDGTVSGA
Briefly: Incubation of MPZ with recombinant CYP isoforms: CYP3A4. Type of series: in vitro ADME. The conditions noted are these: 1 µM MPZ, 60 min. From the text:
(§1) All other procedures were the same as described previously.

The nature of series [5]: Clinical study NG100-101: plasma pharmacokinetics of metopimazine and metabolites after a single oral 60 mg dose. Type of series: in vivo, healthy adult subjects (human). The conditions noted are these: for % Drug‐related material MPZS: based on AUClast. The procedure: The clinical study was conducted at Biotrial Rennes, in accordance with the Declaration of Helsinki. The study (NG100‐101) was a double‐blind, placebo‐ controlled, ascending single‐ and multiple‐dose study of the safety, tolerability, and pharmacokinetics of metopimazine administered orally to healthy adult subjects. The study protocol, informed consent form, and appropriate related documents were approved by the institutional review board, and all subjects provided written informed consent prior to participation in the study. […] In the morning, after at least 10 h of fasting overnight, eight healthy adult subjects (male or female aged 18 to 45), were orally administered metopimazine (or a matching placebo). […] Blood samples were collected at the following time points: predose and 0.25, 0.5, 0.75, 1, 1.25, 1.5, 2, 3, 4, 6, 8, 12, 18, and 24 h postdose; plasma samples were obtained by centrifugation of the blood samples. A comprehensive safety and pharmacokinetic analysis was performed for each cohort for the SAD and MAD parts of the study and will be presented elsewhere. A fit‐for‐purpose discovery method was used to analyze 4 subjects from the highest single dosed cohort for the presence of metabolites. Plasma concentrations of metopimazine, metopimazine acid and metopimazine sulfoxide were quantified using LC–MS/MS methods. Venous blood samples (6 ml) for the determination of plasma concentrations of MPZ and metabolites (MPZA and MPZS) were drawn by direct venipuncture or via an intravenous catheter into K2EDTA Vacutainer® tubes. It was important to avoid hemolysis during blood collection. After collection, the blood samples were centrifuged within 60 min, at 3000 rotations per minute for 10 min at 5°C. The resulting plasma was separated into 2 equal aliquots of 1000 µl (aliquots A & B) and transferred to polypropylene tubes, which were labeled, frozen within 120 min of blood collection and stored at –70°C until required for bioanalysis. Immediately prior to bioanalysis, samples were thawed and a 200 µl aliquots were removed and analytes extracted using acetonitrile protein precipitation. The extracted samples were analyzed twice, once for quantification of MPZ and MPZA and again for MPZS quantification as described below. An MRM LC–MS/MS method was developed for MPZ and metopimazine acid (MPZA) in rat, dog, and human plasma. The method was run in reverse phase in positive ion mode. […] D6‐isotopically labeled internal standards were used for each analyte. The following m/z transitions were monitored: metopimazine 446.3 → 141.1 and metopimazine acid 447.2 → 142.1. […] An MRM LC–MS/MS method was developed to look for metopimazine sulfoxide (MPZS) in human plasma. The method was run in reverse phase in positive ion mode. The system was identical to what was described above except that a slightly longer column was used, a Supelco Discovery HS F5 100 × 4.0 mm (3 µm) column (Sigma‐Aldrich). A D6‐isotopically labeled internal standards was used for MPS and the m/z transition monitored was 462.3 → 98.1. A calibration curve was generated for the quantification of MPZS in human plasma. Noncompartmental Pharmacokinetics analysis was performed in Phoenix 64 Winnonlin version 8.1.

Series [6] deals with T2, CYP3A5 (Homo sapiens, UniProt P20815).
T2 construct: purchased Corning Inc
T2 sequence (P20815 whole entry): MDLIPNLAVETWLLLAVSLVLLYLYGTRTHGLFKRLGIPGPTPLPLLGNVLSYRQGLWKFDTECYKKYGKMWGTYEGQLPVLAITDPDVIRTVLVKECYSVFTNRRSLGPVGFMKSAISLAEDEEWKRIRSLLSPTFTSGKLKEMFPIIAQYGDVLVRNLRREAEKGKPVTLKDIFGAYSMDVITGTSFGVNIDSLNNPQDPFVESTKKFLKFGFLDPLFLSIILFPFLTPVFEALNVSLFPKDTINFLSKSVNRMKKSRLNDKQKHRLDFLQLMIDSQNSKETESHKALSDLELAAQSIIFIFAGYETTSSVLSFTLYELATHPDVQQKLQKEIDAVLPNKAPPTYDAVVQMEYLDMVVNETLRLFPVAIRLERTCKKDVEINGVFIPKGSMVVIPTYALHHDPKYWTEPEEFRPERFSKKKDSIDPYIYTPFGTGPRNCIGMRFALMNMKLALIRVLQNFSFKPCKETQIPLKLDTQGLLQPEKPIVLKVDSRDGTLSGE
In words: Incubation of MPZ with recombinant CYP isoforms: CYP3A5. Type of series: in vitro ADME. The settings on record: 1 µM MPZ, 60 min.
From the text: as §1

Series [7] can be described thus: Incubation of MPZ with pooled human liver microsomes (disappearance, metabolite formation). The settings on record: metopimazine incubation in human liver microsomes, full scan LC–MS. Type of series: in vitro ADME. On the procedure:
To conduct the metabolic incubation in liver microsomes in the linear range, protein concentration and the reaction time were optimized.
PAR was also used for all positive control compounds.
The degree of disappearance of each analyte was evaluated by comparing the PAR of analyte to IS or concentration in different sampling time points to the PAR of time zero, (t = 0, 100%). The percent of parent remaining values were calculated according to the following equation: %parentremaining=(meanconcentrationorPARateachsamplingtimepoint/meanconcentrationorPARoftimezero)×100
(In general: Liver microsomes are vesicles of endoplasmic reticulum, rich in cytochrome P450 enzymes.)

Setting [8] is: 4 subjects, single oral 60 mg MPZ dose.
[9] abbreviates: plasma, individual subjects, single oral 60 mg MPZ dose.

In the case of `Cn1cc[nH]c1=S` [methimazole], the “effect of FMO inhibitor on MPZA formation in HLM” value in series [1] is “not inhibited”.

For `C=C[C@H]1C[N@@]2CC[C@H]1C[C@@H]2[C@@H](O)c1ccnc2ccc(OC)cc12` [quinidine], the “effect of inhibitor on MPZH formation from MPZ (peak area ratio, qualitative)” value in series [2] is “inhibited”.

As to `Nn1nnc2ccccc21` [1‐ABT, 1‐aminobenzotriazole], the “effect of inhibitor on MPZA formation from MPZ” value in series [2] (1 mM ABT or CYP-isoform specific inhibitors) was “no effect on MPZA”. Besides, in series [2], the “effect of inhibitor on MPZS formation from MPZ” value is “inhibited the formation of MPZS” and the “effect of inhibitor on MPZH formation from MPZ (peak area ratio, qualitative)” value is on record as “inhibited”.

With `O=[N+]([O-])c1ccc(OP(=O)(O)Oc2ccc([N+](=O)[O-])cc2)cc1` [BNPP, bis‐p‐nitrophenyl phosphate], the “inhibition of MPZA formation” value is recorded as “at least 97%” in series [3] (2 μM BNPP, even at the highest pH) and above 99% in series [3] (16 μM BNPP, all three pH values (7.4, 8.4, 9.4)).

In the case of `CCC(C)n1ncn(-c2ccc(N3CCN(c4ccc(OCC5COC(Cn6cncn6)(c6ccc(Cl)cc6Cl)O5)cc4)CC3)cc2)c1=O` (stereo not shown) [itraconazole], the “effect of inhibitor on MPZS formation from MPZ” value in series [2] is recorded as “clearly inhibited”.

In the case of `CS(=O)(=O)c1ccc2c(c1)N(CCCN1CCC(C(N)=O)CC1)c1ccccc1[S+]2[O-]` (stereo not shown) [MPZS, metopimazine sulfoxide], the “metabolite formation by recombinant CYP3A4” value in series [4] is “mainly produced by CYP3A4”. In addition, in series [5] (setting [8]), the “quantifiability in plasma at late time points” value is listed as “not quantifiable by 12 h” and the “time of first appearance in plasma” value was in the range of 30 to 45 min. The “% Drug‐related material MPZS” value in series [5] (individual subjects, single 60 mg dose) is 0.4% and 0.9% and 0.5% and 0.8%. The “% Drug‐related material MPZS” value in series [5] (mean of 4 subjects, single 60 mg dose) is listed as 0.7%. The AUC(0-t) in series [5] (both sexes, human, plasma, po, 60 mg, plasma, mean of 4 subjects, single oral 60 mg MPZ dose, read-out: MPZS AUClast) is 15.8 ng·h/mL. Also, the Cmax in series [5] (both sexes, human, plasma, po, 60 mg, plasma, mean of 4 subjects, single oral 60 mg MPZ dose, read-out: MPZS C max) was found to be 4.9 ng/mL. In addition, in series [5] (setting [9]), the “MPZS AUClast” value is 7.6 ng‐h/ml and 25.5 ng‐h/ml and 10.0 ng‐h/ml and 20.1 ng‐h/ml; the “MPZS C max” value was 1.6 ng/mL and 10.2 ng/mL and 3.1 ng/mL and 4.6 ng/mL; the “MPZS T max” value is 4 h and 1.25 h and 1 h. Also, the “percent of total circulating drug‐related material” value in series [5] (rough estimate based on AUClast, single 60 mg dose) is “less than 1%”. Besides, the “metabolite formation by recombinant CYP3A5” value in series [6] is “not CYP3A5”. Moreover, in series [7], the “Peak area at time 0” value was found to be 0 and the “Peak area at time 90 min” value is listed as 59.
